From US9108947B2, “Inhibitors of the Renal Outer Medullary Potassium channel” (Merck Sharp & Dohme Corp., priority 2011, dated 2015)

What was measured:
hROMK (hKir1.1) = hROMK (hKir1.1) (Homo sapiens (Human), UniProt P48048); experiment: Thallium Flux Assay (ROMK channel functional thallium flux, FLIPR-Tetra); format: cell-based; conditions: HEK293 cells stably expressing hROMK (hKir1.1); 30 min compound incubation
Text: (§1) Several assays may be used to measure functional inhibition of the ROMK channel by compounds of the instant invention. One assay that can be used is an electrophysiology assay that measures the electrical current that is generated as potassium permeates through the channel. Another ROMK functional assay makes use of the ability of thallium to permeate through open ROMK channels and increase the fluorescence of a dye previously loaded into the cells. Under control conditions, cells loaded with dye and exposed to thallium-containing medium display a time-dependent increase in fluorescence, the rate of which depends on number of functional channels. When cells are incubated in the presence of a channel inhibitor, the increase in fluorescence is attenuated in a concentration-dependent manner, and IC50 values of inhibition by compounds can be accurately determined. This assay has been established with cell lines expressing either human, or rat ROMK channels, and operates in 384-well format.
HEK293 cells stably expressing hROMK (hKir1.1) were grown at 37° C. in a 10% CO2 humidified incubator in complete growth media: Dulbecco's Modified Eagle Medium supplemented with non-essential amino acids, Penicillin/Streptomycin/Glutamine, G418 and FBS. At >80% confluency, the media was aspirated from the flask and the sample was rinsed with 10 ml Calcium/Magnesium-free PBS. […] To dislodge the cell, the side of the flask was gently banged with a hand. The cells were triturated completely and then transferred to 25 ml complete media. The sample was then centrifuged at 1,500 rpm for 6 minutes, followed by resuspension in complete growth media and then cell concentration was determined. […] Under ideal growth conditions and appropriate tissue culture practices, this cell line is stable for 40-45 passages.
• FluxOR™ Reagent (Component A) • FluxOR™ Assay Buffer (Component B)—10× Concentrate • PowerLoad™ Concentrate (Component C)—100× Concentrate • Probenecid (Component D) Lyophilized sample is kept at −20° C. Water soluble, 100× after solubilization in 1 ml water. […] Store at 4° C. • Thallium sulfate (Tl2SO4) Concentrate (Component G)—50 mM in water. […] Can be stored at room temperature • Stimulant Buffer (prepared at 5× final concentration in 1× FluxOR™Chloride-Free Buffer): 7.5 mM Thallium sulfate and 0.75 mM Potassium sulfate (to give a final assay concentration of 3 mM Thallium 0.3 mM Potassium). Store at 4° C. when not in use. If kept sterile, this solution is good for months. Assay Protocol—
The ROMK channel functional thallium flux assay is performed in 384 wells, using the FLIPR-Tetra instrument. HEK-hKir1.1 cells are seeded in Poly-D-Lysine microplates and kept in a 37° C.-10% CO2 incubator overnight. On the day of the experiment, the growth media is replaced with the FluxOR™ reagent loading buffer and incubated, protected from light, at ambient temperature (23-25° C.) for 90 min. The loading buffer is replaced with assay buffer±test compound followed by 30 min incubation at ambient temperature, where the Thallium/Potassium stimulant is added to the microplate.
• 1. Seed HEK-hKir1.1 cells (50 μl at 20,000 cells/well) in 384-well PDL coated Microplates • 2. Allow cells to adhere overnight in humidified 37° C./10% CO2 incubator • 3. Completely remove cell growth media from microplate and replace with 25 μl loading buffer • 4. Incubate Microplate at room temperature, protected form light, for 90 min • 5. Remove loading buffer and replace with 25 μl 1× Assay Buffer±test compound. • 6. Incubate microplate at room temperature, protected form light, for 30 min • 7. […] Excitation=400 nm, Emission=460 & 580 nm. Collect data for 10 min. Data Calculation—
The fluorescence intensity of wells containing 3 μM of a standard control ROMK inhibitor of the present invention is used to define the ROMK-sensitive component of thallium flux. Fluorescence in the presence of test compounds is normalized to control values to provide % fluorescence change.

Kir1.1 (ROMK1) = Kir1.1 (ROMK1) (Homo sapiens (Human), UniProt P48048); experiment: Electrophysiology Assay (whole cell voltage clamp, IonWorks Quattro); format: cell-based; conditions: Chinese hamster ovary cells stably expressing Kir1.1; block during voltage step to 0 mV; 6 minutes compound incubation; read-out: EP Assay IC50
Text: as §1
Chinese hamster ovary cells stably expressing Kir1.1 channels were maintained in T-75 flasks in cell culture media in a humidified 10% CO2 incubator at 37° C. Prior to an experiment, Kir1.1 expression was induced by overnight incubation with 1 mM sodium butyrate. […] After centrifugation, the cell pellet was resuspended in approximately 4.0 ml of bath solution and placed in the IonWorks® instrument. The intracellular solution consisted of (in mM): 80 K gluconate, 40 KCl, 20 KF, 3.2 MgCl2, 3 EGTA, 5 Hepes, pH 7.4. Electrical access to the cytoplasm was achieved by perforation in 0.13 mg/ml amphotericin B for 4 minutes.
Voltage protocols and current recordings were performed using the IonWorks® HT software/hardware system. Currents were sampled at 1 kHz. No correction for liquid junction potentials was used. The test pulse, consisting of a 100 ms step to 0 mV from a holding potential of −70 mV, followed by a 100 ms voltage ramp from −70 mV to +70 mV, was applied before and after a 6 minutes compound incubation period. Test compounds were prepared by diluting DMSO stock solutions into the bath solution at 3× the final concentration and placed in the instrument in 96-well polypropylene plates. Current amplitudes were measured using the IonWorks® software.

Sequence of hROMK (hKir1.1) (P48048 whole entry): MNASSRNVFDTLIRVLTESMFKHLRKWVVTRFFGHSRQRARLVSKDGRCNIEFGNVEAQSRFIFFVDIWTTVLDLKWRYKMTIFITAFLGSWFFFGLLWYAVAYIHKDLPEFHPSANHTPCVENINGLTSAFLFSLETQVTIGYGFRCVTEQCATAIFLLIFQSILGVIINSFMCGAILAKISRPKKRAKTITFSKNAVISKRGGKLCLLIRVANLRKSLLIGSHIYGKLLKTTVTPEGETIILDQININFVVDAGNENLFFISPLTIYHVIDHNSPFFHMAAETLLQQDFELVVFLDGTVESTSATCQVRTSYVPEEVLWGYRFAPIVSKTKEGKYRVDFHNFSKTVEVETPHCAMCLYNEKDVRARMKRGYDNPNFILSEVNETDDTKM
Sequence of Kir1.1 (ROMK1) (P48048 whole entry, species assumed): as the sequence (P48048 whole entry) above

Which IC50 (hROMK (hKir1.1)) does the source give for Cc1c([C@@H](O)CN2CC[C@@H](NS(=O)(=O)c3ccc(C#N)cc3)C2)ccc2c1COC2=O [Example 15, 4-Cyano-N—((R)-1-((R)-2-hydroxy-2-(4-methyl-1-oxo-1,3-dihydroisobenzofuran-5-yl)ethyl)pyrrolidin-3-yl)benzenesulfonamide] here?
Its IC50 is 0.639 µM.

And the IC50 (Kir1.1 (ROMK1))?
Its IC50 is 1.39 µM.

For Cc1c([C@@H](O)CNC2(C3CCN(C[C@H](O)c4ccc5c(c4C)COC5=O)C3)CCC2)ccc2c1COC2=O (stereo partly drawn) [Example 2, 5-{(1R)-1-Hydroxy-2-[3-(1-{[(2R)-2-hydroxy-2-(4-methyl-1-oxo-1,3-dihydro-2-benzofuran-5-yl)ethyl]amino}cyclobutyl)pyrrolidin-1-yl]ethyl}-4-methyl-2-benzofuran-1(3H)-one], which IC50 (hROMK (hKir1.1)) is on record?
The IC50 was 0.172 µM.

And the IC50 (Kir1.1 (ROMK1))?
The IC50 was 0.42 µM.

Which IC50 (hROMK (hKir1.1)) does the source give for Cc1c(C(CO)NCC2CCCN2C[C@H](O)c2ccc3c(c2C)COC3=O)ccc2c1COC2=O (stereo partly drawn) [Example 4, 5-{(1R)-1-Hydroxy-2-[2-({[2-hydroxy-1-(4-methyl-1-oxo-1,3-dihydro-2-benzofuran-5-yl)ethyl]amino}methyl)pyrrolidin-1-yl]ethyl}-4-methyl-2-benzofuran-1(3H)-one] here?
The IC50 was 0.523 µM.

And the IC50 (Kir1.1 (ROMK1))?
Its IC50 is 0.278 µM.

Which IC50 (hROMK (hKir1.1)) does the source give for Cc1c(C(O)CN2CC[C@@H](NC[C@H](O)c3ccc4c(c3C)COC4=O)C2)ccc2c1COC2=O (stereo in doubt) [Example 1, 5-{(1R)-1-Hydroxy-2-[(3R)-3-{[(2R)-2-hydroxy-2-(4-methyl-1-oxo-1,3-dihydro-2-benzofuran-5-yl)ethyl]amino}pyrrolidin-1-yl]ethyl}-4-methyl-2-benzofuran-1(3H)-one] here?
Its IC50 is 0.414 µM.

What about the IC50 (Kir1.1 (ROMK1)) of the same compound?
Its IC50 is 0.595 µM.

With Cc1c([C@@H](O)CN2CCCC2CNCC(O)c2ccc(C#N)cn2)ccc2c1COC2=O (single isomer, unassigned) [Example 9A] as the compound, how does the IC50 (hROMK (hKir1.1)) read?
Its IC50 is 0.188 µM.

And the IC50 (Kir1.1 (ROMK1))?
The IC50 was 0.321 µM.

What does the source list for Cc1c([C@@H](O)CNC2C[C@H]3C[C@@H]2N(C[C@H](O)c2ccc4c(c2C)COC4=O)C3)ccc2c1COC2=O (single isomer, unassigned) [Example 17A]?
IC50 (hROMK (hKir1.1)): 0.5 µM; IC50 (Kir1.1 (ROMK1)): 1.42 µM

How did the IC50 (hROMK (hKir1.1)) turn out when Cc1c([C@@H](O)CN2CC(CNS(=O)(=O)c3ccc(C#N)cc3)C2)ccc2c1COC2=O [Example 14, (R)-4-Cyano-N-((1-(2-hydroxy-2-(4-methyl-1-oxo-1,3-dihydroisobenzofuran-5-yl)ethyl)azetidin-3-yl)methyl)benzenesulfonamide] was run?
The IC50 was 0.122 µM.

What about the IC50 (Kir1.1 (ROMK1)) of the same compound?
Its IC50 is 0.15 µM.
